SMILES strings stand for the structures. Some results are limits rather than exact numbers.

One test concerns the target MEK1 activated ERK1 (Homo sapiens (Human), UniProt P27361). Nature of the test: Omnia continuous-read kinase assay for potency against MEK1 activated ERK1. Format: biochemical. The following applies: MEK1 activated ERK1, WT, ATP at KM. From the text:
Omnia Assay Protocol for Potency Assessment Against MEK1 Activated ERK1:
The protocol below describes continuous-read kinase assays to measure potency of compounds against activated ERK1 enzyme. The mechanics of the assay platform are best described by the vendor (Invitrogen, Carlsbad, Calif.) on their website at the following URL: invitrogen.com/site/us/en/home.html.
Briefly, a 1.25× stock of ERK1 enzyme (14-439-K) from Millipore (Billerica, Mass.), 5×ATP (AS001A) and ST17-Sox conjugated peptide substrate (KNZ1171C) were prepared in 1× kinase reaction buffer consisting of 20 mM Tris, pH 7.5, 5 mM MgCl2, 1 mM EGTA, 5 mM β-glycerophosphate, 5% glycerol (10× stock, KB002A) and 0.2 mM DTT. 10 μL of ATP/ST17-sox peptide substrate mix was combined with 0.5 μL volume of 100% DMSO and serially diluted compounds were prepared in 100% DMSO in a Corning (#3574) 384-well, white, non-binding surface microtiter plate (Corning, N.Y.). Kinase reactions were started with the addition of 40 μL of ERK1 solution and monitored every 71 seconds for 30-240 minutes at λex360/λem485 in a Synergy plate reader from BioTek (Winooski, Vt.). At the conclusion of each assay, progress curves from each well were examined for linear reaction kinetics and fit statistics (R^2, 95% confidence interval, absolute sum of squares). Initial velocity (0 minutes to ˜30+ minutes) from each reaction was determined from the slope of a plot of relative fluorescence units vs time (minutes or seconds) and then plotted against inhibitor concentration to estimate ^AppIC50 from log [Inhibitor] vs Response, Variable Slope model in GraphPad Prism from GraphPad Software (San Diego, Calif.).
[Reagent] used in optimized protocol:
[ERK1]=4 nM, [ATP]=50 μM, [ST17-Sox]=10 μM (ATP ^appKM 48 μM)
The results of this assay show the degree of inhibition of ERK activity, which is a direct measurement of inhibition of ERK activity. Results from this assay are reported in Table A under the column “ERK1 Omnia WT ATP KM IC50 (nM).”

The next test has as its target Erk1 (Homo sapiens (Human), UniProt P27361). Briefly: Protein Mass Modification Assay (intact protein MALDI). Format: binding. In a few lines:
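Percent covalent modification comes from the intact-protein MALDI centroid mass shift, treated versus control, divided by compound MW. Before analysis, human Erk1 was exposed to compound at 10-fold excess over protein for 60 min at room temperature.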

Sequence of MEK1 activated ERK1 (P27361 whole entry): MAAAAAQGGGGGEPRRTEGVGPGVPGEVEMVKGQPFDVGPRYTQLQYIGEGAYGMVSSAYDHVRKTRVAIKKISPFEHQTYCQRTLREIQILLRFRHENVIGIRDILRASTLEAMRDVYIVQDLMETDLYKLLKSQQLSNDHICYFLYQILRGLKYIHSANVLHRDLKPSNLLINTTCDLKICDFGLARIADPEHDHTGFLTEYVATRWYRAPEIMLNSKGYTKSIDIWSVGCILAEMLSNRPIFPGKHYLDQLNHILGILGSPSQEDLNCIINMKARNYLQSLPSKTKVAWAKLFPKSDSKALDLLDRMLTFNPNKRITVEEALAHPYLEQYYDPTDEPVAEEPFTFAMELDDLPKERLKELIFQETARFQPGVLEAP
Sequence of Erk1 (P27361 whole entry, looked up): as the sequence (P27361 whole entry) above

As usually defined, the IC50 is the concentration that inhibits the measured activity by half. Regarding `C=CC(=O)N[C@H]1CCCC1Nc1nc(N[C@H]2CCCN(C(C)=O)C2)ncc1C(F)(F)F` (stereo in doubt) [Compound I-24, N-((1S,2S)-2-((2-(((S)-1-Acetylpiperidin-3-yl)amino)-5-(trifluoromethyl)pyrimidin-4-yl)amino)cyclopentyl)acrylamide], the IC50 at MEK1 activated ERK1 was over 1 µM. For the same compound, the “ERK1 Mass Mod (%)” value on Erk1 is reported as “G (proived a mass modification ≦30%)”.

With `C=CC(=O)Nc1ccccc1Nc1nc(N[C@@H]2CCC[C@H](C(N)=O)C2)ncc1C(F)(F)F` [Compound I-7, (1S,3R)-3-((4-((2-acrylamidophenyl)amino)-5-(trifluoromethyl)pyrimidin-2-yl)amino)cyclohexanecarboxamide], the IC50 on MEK1 activated ERK1 was under 0.1 µM. Moreover, the “ERK1 Mass Mod (%)” value on Erk1 was “E (provided a mass modification of ≧70%)”.

With `C=CC(=O)Nc1ccccc1Nc1nc(N[C@H]2CCCN(C=O)C2)ncc1C(F)(F)F` [Compound I-9, (S)—N-(2-((2-((1-formylpiperidin-3-yl)amino)-5-(trifluoromethyl)pyrimidin-4-yl)amino)phenyl)acrylamide], the IC50 at MEK1 activated ERK1 was under 0.1 µM. For the same compound, the “ERK1 Mass Mod (%)” value on Erk1 is reported as “E (provided a mass modification of ≧70%)”.

Turning to `C=CC(=O)Nc1ccccc1Nc1nc(N[C@H]2CCCN(C(C)=O)C2)ncc1C(F)(F)F` [Compound I-10, (S)—N-(2-(2-(1-acetylpiperidin-3-ylamino)-5-(trifluoromethyl)pyrimidin-4-ylamino)phenyl)acrylamide], on MEK1 activated ERK1, the IC50 was under 0.1 µM. The “ERK1 Mass Mod (%)” value at Erk1 is recorded as “E (provided a mass modification of ≧70%)”.

For the compound `C=CC(=O)Nc1ccccc1Nc1nc(NC2CCN(S(C)(=O)=O)CC2)ncc1C(F)(F)F` [Compound I-13, N-(2-((2-((1-(methylsulfonyl)piperidin-4-yl)amino)-5-(trifluoromethyl)pyrimidin-4-yl)amino)phenyl)acrylamide], at MEK1 activated ERK1, the IC50 is under 0.1 µM. Also, the “ERK1 Mass Mod (%)” value on Erk1 was “E (provided a mass modification of ≧70%)”.

On to `C=CC(=O)Nc1ccccc1Nc1nc(N[C@H]2CCCN(C(=O)OC)C2)ncc1C(F)(F)F` [Compound I-17, (S)-Methyl 3-((4-((2-acrylamidophenyl)amino)-5-(trifluoromethyl)pyrimidin-2-yl)amino) piperidine-1-carboxylate], for which the IC50 at MEK1 activated ERK1 was under 0.1 µM. The “ERK1 Mass Mod (%)” value at Erk1 is “F (provided a mass modification of 31-69%)”.

On to `C=CC(=O)Nc1ccccc1Nc1nc(N[C@H]2CCCN(C(N)=O)C2)ncc1C(F)(F)F` [Compound I-18, (S)-3-((4-((2-Acrylamidophenyl)amino)-5-(trifluoromethyl)pyrimidin-2-yl)amino)piperidine-1-carboxamide], for which the IC50 at MEK1 activated ERK1 was under 0.1 µM. Further, the “ERK1 Mass Mod (%)” value on Erk1 was “E (provided a mass modification of ≧70%)”.

Turning to `C=CC(=O)Nc1cc(C)ccc1Nc1nc(N[C@H]2CCCN(C(C)=O)C2)ncc1C(F)(F)F` [Compound I-19, (S)—N-(2-((2-((1-Acetylpiperidin-3-yl)amino)-5-(trifluoromethyl)pyrimidin-4-yl)amino)-5-methylphenyl)acrylamide], the IC50 on MEK1 activated ERK1 is under 0.1 µM. The “ERK1 Mass Mod (%)” value at Erk1 is recorded as “E (provided a mass modification of ≧70%)”.

Consider `C=CC(=O)Nc1cc(C)ccc1Nc1nc(N[C@H]2CCCN(C(=O)CO)C2)ncc1C(F)(F)F` [Compound I-20, (S)—N-(2-((2-((1-(2-Hydroxyacetyl)piperidin-3-yl)amino)-5-(trifluoromethyl)pyrimidin-4-yl)amino)-5-methylphenyl)acrylamide], for which the IC50 at MEK1 activated ERK1 was under 0.1 µM. For the same compound, the “ERK1 Mass Mod (%)” value on Erk1 was “E (provided a mass modification of ≧70%)”.

With `CCC(=O)Nc1ccccc1Nc1nc(N[C@H]2CCCN(C(=O)CO)C2)ncc1Cl` [Compound I-311, (S)—N-(2-((5-chloro-2-((1-(2-hydroxyacetyl)piperidin-3-yl)amino)pyrimidin-4-yl)amino)phenyl)propionamide], the IC50 at MEK1 activated ERK1 is under 0.1 µM.

The values are drawn from patent US9796700B2 (Celgene CAR LLC, priority 2013, dated 2017).
